According to US8518874B2, “HCV inhibitors” (Virobay, Inc., priority 2005, dated 2013):

Each molecule was assayed on HCV replication (HCV replicon RNA in Huh7/Clone A cells) (assay: HCV Replicon Assay). Settings: Hepatitis C virus, Huh-7, 48 h, read-out: IC50 for inhibition of HCV replication.
Format: cell-based
Source text: The HCV replicon assay is a cell-culture system that mimics in vivo HCV replication and provides a system to study HCV replication in vitro. It was created by transfecting cloned viral RNA derived from a consensus HCV genomic sequence into human Huh7 hepatoma cells that are semi-permissive for viral RNA production (Lohmann V., Korner F., Koch J.-O., Herian U., Theilmann L. and Bartenschlager R. (1999). Replication of subgenomic Hepatitis C virus RNAs in a hepatoma cell line. Science 285, 110-113 and Blight K. J., Kolykhalov A. A. and Rice C. M. (2000). Efficient initiation of HCV RNA Replication in cell culture. Science 290, […]). These transfected cell lines contain a subgenomic HCV RNA genome that includes (1) the HCV 5′NTR fused to 12 amino acids of the capsid coding region, (2) the neomycin phosphotransferase gene (Neo) as a selectable marker, (3) the internal ribosome entry site (IRES) from encephalomyocarditis virus (EMCV) that directs translation of HCV non-structural proteins (variously NS2 or NS3 to NS5B), and (4) the 3′ NTR. Replicon-containing cells autonomously and persistently replicate HCV RNA that can be measured quantitatively by real-time qPCR. Therefore, the replicon system facilitates quantitative assessment of anti-viral activity by monitoring changes in HCV RNA replication in a cell-based assay.
HCV replicon-containing cells (Huh7/Clone A) were routinely maintained in Clone A growth medium (DMEM medium [Invitrogen], supplemented with 10% Fetal Bovine Serum, 1% Non Essential Amino Acids and 1 g/L G418). Test compounds were dissolved in dimethyl sulfoxide (DMSO) to make 200× stock solutions for all doses prior to treatment.
For the HCV replicon assay, Huh7/Clone A cells were trypsinized from culture flasks, seeded in 1 ml of Clone A growth medium without G418 at 4×10^4 cells per well in 24-well plates and incubated at 37° C. in a humidified CO2 (5%) incubator overnight. Following overnight incubation, compound solutions were added into wells in the same volume (5 μl of 200× compound stock per well) to give a final DMSO concentration of 0.5%. Three wells on each plate supplemented with 5 μl of DMSO served as untreated controls. For IC50 determinations, compounds were tested at 7 serial dilutions in triplicates from the starting stock solutions. The plates were incubated at 37° C. for 48 hours. After incubation, cells were harvested, transferred to 96-well plates, and subjected to total RNA extraction using the RNA Isolation Kit (RNeasy 96, Qiagen) according to the protocol described by the manufacture's RNeasy 96 Handbook (Qiagen).
Total RNA eluted in 130 μl of RNase-free dH2O was quantitated by the RiboGreen Assay according to the supplier's protocol (Molecular Probe). Briefly, 5 μl of RNA samples were aliquoted in duplicate to a 96-well black microplate and a 96-well TaqMan Optical plate. RNA samples in the black microplate were mixed with 95 μl of diluted RiboGreen:reagent (1:250 dilution in TE buffer) and sample fluorescence was measured using a fluorescence microplate reader at standard fluorescein wavelengths (excitation ˜480 nm, emission ˜520 nm). Ribosomal RNA (Molecular Probe) was used as standard.
TaqMan quantitative PCR (RT-qPCR) was used to quantitate the amount of HCV replicon RNA in each sample. The RT-qPCR reactions were performed in 25 μl on an ABI PRISM 7900 HT Sequence Detection System (Applied Biosystems). The reaction mixture contained 5 μl of total RNA (10-100 ng), 1×TaqMan Buffer A (Applied Biosystems), 5.5 mM MgCl2, 1.2 mM dNTP mix, 0.625 U of AmpliTaq Gold (Applied Biosystems), 5 U of MMLV reverse transcriptase (Promega), 5 U of rRNasin (Promega), 300 nM each of the forward and reverse primers, and 100 nM TaqMan MGB probe. […]
`CC(C)(C)NC(=O)N[C@H](C(=O)N1CC(Oc2ccc(Cl)cn2)C[C@H]1C(=O)N[C@@H](CC1CCC1)C(=O)C(=O)NC1CC1)C(C)(C)C` (stereo partly drawn) [Compound 3, 1-[2S-(3-tert-butylureido)-3,3-dimethylbutyryl]-4R-(5-chloropyridin-2-yloxy)-pyrrolidine-2S-carboxylic acid (1S-cyclobutylmethyl-2-cyclopropylcarbamoyl-2-oxoethyl)-amide] gave an IC50 of less than 50 µM.
`CCC[C@H](NC(=O)[C@@H]1C[C@@H](Oc2ccc(Cl)cn2)CN1C(=O)[C@@H](NC(=O)OC(C)(C)C)C(C)(C)C)C(=O)C(=O)NC1CC1` [Compound 6, {1S-[4R-(5-chloropyridin-2-yloxy)-2S-(1S-cyclopropylaminooxalylbutyl-carbamoyl)-pyrrolidine-1-carbonyl]-2,2-dimethyl-propyl}-carbamic acid tent-butyl ester] was tested, and the IC50 was less than 50 µM.
`CC(C)(C)OC(=O)N[C@H](C(=O)N1C[C@H](Oc2ccc(Cl)cn2)C[C@H]1C(=O)N[C@@H](CC1CCC1)C(=O)C(=O)NC1CC1)C(C)(C)C` [Compound 7, {1S-[4R-(5-chloropyridin-2-yloxy)-2S-(1S-cyclobutylmethyl-2-cyclopropylcarbamoyl-2-oxo-ethylcarbamoyl)-pyrrolidine-1-carbonyl]-2,2-dimethyl-propyl}-carbamic acid tert-butyl ester] gave an IC50 of less than 50 µM.

Same assay, conditions: Hepatitis C virus, Huh-7; HCV replicon-containing Huh7/Clone A cells, 48 hours incubation, replicon RNA by RT-qPCR normalized to total RNA; read-out: IC50 for inhibition of HCV replication
`CCC[C@H](NC(=O)[C@@H]1C[C@@H](Oc2ccc(Cl)cn2)CN1C(=O)[C@@H](NC(=O)NC(C)(C)C)C(C)(C)C)C(=O)C(=O)NC1CC1` [Compound 8, 1-[2-(3-tert-butylureido)-3,3-dimethyl-butyryl]-4-(5-chloro-pyridin-2-yloxy)-pyrrolidine-2-carboxylic acid (1-cyclopropylaminooxalyl-butyl)-amide] gave an IC50 of less than 10 µM.
Molecule `COc1ccc2c(OC3C[C@@H](C(=O)N[C@@H](CC4CC4)C(=O)C(=O)NC4CC4)N(C(=O)[C@@H](NC(=O)NC(C)(C)C)C(C)(C)C)C3)nccc2c1` (stereo partly drawn) [Compound 10, 1-[2S-(3-tert-Butyl-ureido)-3,3-dimethyl-butyryl]-4R-(6-methoxy-isoquinolin-1-yloxy)-pyrrolidine-2S-carboxylic acid (2-cyclopropylcarbamoyl-1S-cyclopropylmethyl-2-oxo-ethyl)-amide] has an IC50 of less than 10 µM.
Work on `CCOc1ccc2c(OC3C[C@@H](C(=O)N[C@@H](CC4CC4)C(=O)C(=O)NC4CC4)N(C(=O)[C@@H](NC(=O)NC(C)(C)C)C(C)(C)C)C3)nccc2c1` (stereo partly drawn) [Compound 11, 1-[2S-(3-tert-Butyl-ureido)-3,3-dimethyl-butyryl]-4R-(6-ethoxy-isoquinolin-1-yloxy)-pyrrolidine-2-carboxylic acid (2-cyclopropylcarbamoyl-1S-cyclopropylmethyl-2S-oxo-ethyl)-amide] yielded an IC50 of less than 10 µM.
Molecule `CCC[C@H](NC(=O)[C@@H]1CC(Oc2nccc3cc(OCC)ccc23)CN1C(=O)[C@@H](NC(=O)NC(C)(C)C)C(C)(C)C)C(=O)C(=O)NC1CC1` (stereo partly drawn) [Compound 12, 1-[2S-(3-tert-Butyl-ureido)-3,3-dimethyl-butyryl]-4R-(6-ethoxy-isoquinolin-1-yloxy)-pyrrolidine-2S-carboxylic acid (1S-cyclopropylaminooxalyl-butyl)-amide] has an IC50 of less than 10 µM.
Work on `CCCC[C@H](NC(=O)[C@@H]1CC(Oc2nccc3cc(OC)ccc23)CN1C(=O)[C@@H](NC(=O)NC(C)(C)C)C(C)(C)C)C(=O)C(=O)NC1CC1` (stereo partly drawn) [Compound 13, 1-[2S-(3-tert-Butyl-ureido)-3,3-dimethyl-butyryl]-4R-(6-methoxy-isoquinolin-1-yloxy)-pyrrolidine-2S-carboxylic acid (1S-cyclopropylaminooxalyl-pentyl)-amide] yielded an IC50 of less than 10 µM.
